Measured values: PubChem BioAssay (NCI)
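These data come from cells grown in 96-well plates and exposed to compound for 48 hours at five concentrations. Definition used: TGI = concentration required for complete inhibition of growth.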

What was measured:
Assay in all cases: NCI anticancer screen, dose series, 48 h
SK-MEL-5 melanoma = tested on: SK-MEL-5 melanoma
A549 NSCLC = tested on: A549 NSCLC
MALME-3M melanoma = tested on: MALME-3M melanoma
OVCAR-3 ovarian = tested on: OVCAR-3 ovarian
COLO 205 colon = tested on: COLO 205 colon
ACHN renal = tested on: ACHN renal
MOLT-4 leukemia = tested on: MOLT-4 leukemia
HS 578T breast = tested on: HS 578T breast
SK-OV-3 ovarian = tested on: SK-OV-3 ovarian
T-47D breast = tested on: T-47D breast
SF-268 CNS = tested on: SF-268 CNS
A498 renal = tested on: A498 renal
MDA-MB-231 breast = tested on: MDA-MB-231 breast
K-562 leukemia = tested on: K-562 leukemia
CCRF-CEM leukemia = tested on: CCRF-CEM leukemia
NCI-H23 lung = tested on: NCI-H23 lung
UACC-62 melanoma = tested on: UACC-62 melanoma
SW-620 colon = tested on: SW-620 colon
786-0 renal = tested on: 786-0 renal
RXF 393 renal = tested on: RXF 393 renal
SF-539 CNS = tested on: SF-539 CNS
HCT-116 colon = tested on: HCT-116 colon
IGROV1 ovarian = tested on: IGROV1 ovarian
HT29 colon = tested on: HT29 colon
MDA-MB-435 = tested on: MDA-MB-435
EKVX NSCLC = tested on: EKVX NSCLC
SK-MEL-2 melanoma = tested on: SK-MEL-2 melanoma
M14 melanoma = tested on: M14 melanoma
NCI/ADR-RES ovarian = tested on: NCI/ADR-RES ovarian
MCF7 breast = tested on: MCF7 breast
SN12C renal = tested on: SN12C renal
OVCAR-8 ovarian = tested on: OVCAR-8 ovarian
NCI-H522 lung = tested on: NCI-H522 lung
PC-3 prostate = tested on: PC-3 prostate
HCT-15 colon = tested on: HCT-15 colon
HCC-2998 colon = tested on: HCC-2998 colon
NCI-H460 lung = tested on: NCI-H460 lung
OVCAR-4 ovarian = tested on: OVCAR-4 ovarian
CAKI-1 renal = tested on: CAKI-1 renal
UACC-257 melanoma = tested on: UACC-257 melanoma
HL-60(TB) leukemia = tested on: HL-60(TB) leukemia
HOP-62 NSCLC = tested on: HOP-62 NSCLC
OVCAR-5 ovarian = tested on: OVCAR-5 ovarian
KM12 colon = tested on: KM12 colon
RPMI-8226 leukemia = tested on: RPMI-8226 leukemia
DU-145 prostate = tested on: DU-145 prostate
TK-10 renal = tested on: TK-10 renal
SK-MEL-28 melanoma = tested on: SK-MEL-28 melanoma
LOX IMVI melanoma = tested on: LOX IMVI melanoma
BT-549 breast = tested on: BT-549 breast
HOP-92 NSCLC = tested on: HOP-92 NSCLC
U251 CNS = tested on: U251 CNS
SF-295 CNS = tested on: SF-295 CNS
SNB-19 CNS = tested on: SNB-19 CNS
MDA-N = tested on: MDA-N
SR leukemia = tested on: SR leukemia
SNB-75 CNS = tested on: SNB-75 CNS
NCI-H226 lung = tested on: NCI-H226 lung
UO-31 renal = tested on: UO-31 renal

Measured: TGI

CSc1cc(-c2cccs2)sc1-c1cc(SC)c(-c2sc(-c3sc(-c4cccs4)cc3SC)cc2SC)s1
> 100 µM: SK-MEL-5 melanoma | A549 NSCLC | MALME-3M melanoma | OVCAR-3 ovarian | COLO 205 colon | ACHN renal | MOLT-4 leukemia | HS 578T breast | SK-OV-3 ovarian | T-47D breast | SF-268 CNS | A498 renal | MDA-MB-231 breast | K-562 leukemia | CCRF-CEM leukemia | NCI-H23 lung | UACC-62 melanoma | SW-620 colon | 786-0 renal | RXF 393 renal | SF-539 CNS | HCT-116 colon | IGROV1 ovarian | HT29 colon | MDA-MB-435 | EKVX NSCLC | SK-MEL-2 melanoma | M14 melanoma | NCI/ADR-RES ovarian | MCF7 breast | SN12C renal | OVCAR-8 ovarian | NCI-H522 lung | PC-3 prostate | HCT-15 colon | HCC-2998 colon | NCI-H460 lung | OVCAR-4 ovarian | CAKI-1 renal | UACC-257 melanoma | HL-60(TB) leukemia | HOP-62 NSCLC | OVCAR-5 ovarian | KM12 colon | RPMI-8226 leukemia | DU-145 prostate | TK-10 renal | SK-MEL-28 melanoma | LOX IMVI melanoma | BT-549 breast | HOP-92 NSCLC | U251 CNS | SF-295 CNS | SNB-19 CNS | MDA-N

Nc1ccc(N=Nc2c(S(=O)(=O)O)cc3ccccc3c2S(=O)(=O)O)cc1
> 100 µM: SK-MEL-5 melanoma | A549 NSCLC | MALME-3M melanoma | OVCAR-3 ovarian | ACHN renal | MOLT-4 leukemia | HS 578T breast | T-47D breast | SF-268 CNS | SR leukemia | A498 renal | MDA-MB-231 breast | K-562 leukemia | CCRF-CEM leukemia | NCI-H23 lung | UACC-62 melanoma | SW-620 colon | 786-0 renal | RXF 393 renal | SNB-75 CNS | HCT-116 colon | IGROV1 ovarian | HT29 colon | MDA-MB-435 | EKVX NSCLC | SK-MEL-2 melanoma | NCI-H226 lung | M14 melanoma | NCI/ADR-RES ovarian | SN12C renal | OVCAR-8 ovarian | NCI-H522 lung | PC-3 prostate | HCT-15 colon | HCC-2998 colon | NCI-H460 lung | OVCAR-4 ovarian | CAKI-1 renal | UACC-257 melanoma | HOP-62 NSCLC | OVCAR-5 ovarian | KM12 colon | DU-145 prostate | TK-10 renal | SK-MEL-28 melanoma | LOX IMVI melanoma | UO-31 renal | BT-549 breast | HOP-92 NSCLC | U251 CNS | SF-295 CNS | SNB-19 CNS | MDA-N
